{
  "source": "patent US20100303790A1",
  "about": "“USE OF BILIVERDIN REDUCTASE (BVR) AND BVR PEPTIDE FRAGMENTS TO TREAT CORONARY DISORDERS” (UNIVERSITY OF ROCHESTER, priority 2009, published 2010)",
  "key": {"[1]": {"tested_on": "rat neonatal cardiomyocytes", "assay": "BVR, HO-2 and HO-1 mRNA in isoproterenol-stimulated cardiomyocytes (RT-PCR)", "assay_type": "cell-based", "settings": "10 μM isoproterenol", "method": "Neonatal Rat Cardiomyocytes: Primary cultures of neonatal rat cardiomyocytes were prepared as described previously (Ding et al., “Functional Role of Phosphodiesterase 3 in Cardiomyocyte Apoptosis: Implication in Heart Failure,” Circulation 111:2469-2476 (2005) which is hereby incorporated by reference in its entirety). Briefly, fragmented ventricular tissue from 1-2 day old Sprague-Dawley rats was subjected to multiple rounds of enzymatic digestion with collagenase II (Worthington, Lakewood, N.J.). The cells were then collected by low speed centrifugation at 4° C. Non-myocytes were removed by two rounds of pre-plating the cells on culture dishes. The enriched cardiomyocytes were cultured in DMEM with 10% FBS and 10% horse serum. The day after cell adhesion, 10 μM cytosine 1-β-D-arabinofuranoside (Sigma, St. Louis, Mo.) was added to inhibit the growth of contaminating non-myocytes.\n(§1) Quantitative RT-PCR: Total RNA was isolated using Trizol reagent (Invitrogen). The first-strand cDNA synthesis and quantitative polymerase chain reaction (RT-PCR) were performed as previously described (Tudor et al., “Biliverdin Reductase is a Transporter of Haem into the Nucleus and is Essential for Regulation of HO-1 Gene Expression by Haematin,” Biochem J 413:405-416 (2008), which is hereby incorporated by reference in its entirety). The following primers were used for PCR analysis: […]\nPCR products were resolved by electrophoresis and quantified by image analysis of stained gels.\nThe question of whether the increased synthesis of each protein required elevated levels of BVR and HO-2 mRNA was investigated by RT-PCR. […] HO-1 protein expression was not detected throughout the whole process of isoproterenol treatment up to 96 hours."}, "rat heart": {"tested_on": "rat heart", "assay": "BVR and HO-2 expression in rat heart after continuous isoproterenol infusion", "assay_type": "in vivo", "settings": "400 μg isoproterenol/kg/h, four days", "method": "Western Blot Analysis: Cell lysates were prepared by homogenization in RIPA buffer (40 mM Tris-HCl, pH 7.5, 1 mM EDTA, 1 mM DTT, 0.1 mM Na3VO4, 10 μg/ml aprotinin, 5 μg/ml pepstatin, 20 μg/ml leupeptin, 1 mM bezamidine followed by centrifugation at 800×g for 10 minutes at 4° C. (Ding et al., “Functional Role of Phosphodiesterase 3 in Cardiomyocyte Apoptosis: Implication in Heart Failure,” Circulation 111:2469-2476 (2005), which is hereby incorporated by reference in its entirety). Supernatant proteins were resolved by SDS-PAGE and transferred to nitrocellulose. Western blots were examined using antibodies against β-actin (Cell Signaling), BVR (Huang et al., “Detection of 10 Variants of Biliverdin Reductase in Rat Liver by Two-Dimensional Gel Electrophoresis,” J Biol Chem 264:7844-7849 (1989), which is hereby incorporated by reference in its entirety), HO-1, HO-2 (Panahian et al., “Site of Injury-Directed Induction of Heme Oxygenase-1 and -2 in Experimental Spinal Cord Injury Differential Functions in Neuronal Defense Mechanisms?” J Neurochem 76:539-554 (2001), which is hereby incorporated by reference in its entirety), and cleaved caspase-3 (Cell Signaling, Beverly Mass.). The secondary antibody was horseradish peroxidase-conjugated goat anti-rabbit IgG (1:2,000, Bio-Rad).\nas §1\nImplanting ISO Miniosmotic Pump: Miniosmotic pumps (Alzet model 2001, Durect Co., Cupertino, Calif.) were filled under sterile conditions with ISO dissolved in 0.001 N HCl, primed in sterile saline at 37° C. overnight, and aseptically implanted subcutaneously under halothane anesthesia. The ISO concentration was calculated to allow the pumps to deliver the drug at an infusion rate of 400 μg ISO base/kg/h, essentially as described by (Hayes et al., “Effects of Prolonged Isoproterenol Infusion on Cardiac and Vascular Responses to Adrenoceptor Agonists,”J Pharmacol Exp Ther 237:757-763 (1986), which is hereby incorporated by reference in its entirety).\nIt might be argued that the above data arose as an artifact of cell culture. To test whether those findings also apply in vivo, four rats were continuously infused with isoproterenol for four days, after which cardiac tissue was harvested for examination of BVR and HO-2 expression. […] Also, as expected from in vitro observations, there was no change in the level of HO-2 mRNA during infusion with isoproterenol (FIG. 3B), whereas the BVR mRNA was increased."}, "[2]": {"tested_on": "rat neonatal cardiomyocytes", "settings": "literature (Hu et al. 2006); cited from earlier work"}},
  "data": [
    {"molecule": "CC(C)NCC(O)c1ccc(O)c(O)c1", "note": "(stereo not drawn) [isoproterenol]", "values": [
      {"measurement": "HO-2 mRNA content", "setting": "[1]", "result": "remained unchanged"},
      {"measurement": "level of BVR mRNA", "setting": "[1]", "result": "increased"},
      {"measurement": "level of HO-1 mRNA", "setting": "[1]", "result": "transient increase"},
      {"measurement": "BVR mRNA in heart", "setting": "rat heart", "result": "increased"},
      {"measurement": "level of HO-1 mRNA in the tissue", "setting": "rat heart", "result": "no apparent change"},
      {"measurement": "level of HO-2 mRNA in heart", "setting": "rat heart", "result": "no change"},
      {"measurement": "BVR protein expression in heart", "setting": "rat heart; vs sham", "result": "up-regulated"},
      {"measurement": "HO-2 protein expression in heart", "setting": "rat heart; vs sham", "result": "up-regulated"},
      {"measurement": "cardiomyocyte apoptosis", "setting": "[2]", "result": "increases cardiomyocyte apoptosis"}
    ]}
  ]
}
